Like-named read-outs stand apart in the source and are kept apart here.
Columns and labels:
[1] = target: T1, receptor polypeptide EcR and chimeric receptor polypeptide VP16-USP (Drosophila melanogaster, UniProt P34021); format: cell-based; conditions: 48 hours, maize cells, 35S/EcR + 35S/VP16-USP, (EcRE)6-Bz1/Luc
T1 construct: expressed in transfected cells; host or cells: maize suspension cells (microprojectile bombardment)
T1 sequence (P34021 1-878): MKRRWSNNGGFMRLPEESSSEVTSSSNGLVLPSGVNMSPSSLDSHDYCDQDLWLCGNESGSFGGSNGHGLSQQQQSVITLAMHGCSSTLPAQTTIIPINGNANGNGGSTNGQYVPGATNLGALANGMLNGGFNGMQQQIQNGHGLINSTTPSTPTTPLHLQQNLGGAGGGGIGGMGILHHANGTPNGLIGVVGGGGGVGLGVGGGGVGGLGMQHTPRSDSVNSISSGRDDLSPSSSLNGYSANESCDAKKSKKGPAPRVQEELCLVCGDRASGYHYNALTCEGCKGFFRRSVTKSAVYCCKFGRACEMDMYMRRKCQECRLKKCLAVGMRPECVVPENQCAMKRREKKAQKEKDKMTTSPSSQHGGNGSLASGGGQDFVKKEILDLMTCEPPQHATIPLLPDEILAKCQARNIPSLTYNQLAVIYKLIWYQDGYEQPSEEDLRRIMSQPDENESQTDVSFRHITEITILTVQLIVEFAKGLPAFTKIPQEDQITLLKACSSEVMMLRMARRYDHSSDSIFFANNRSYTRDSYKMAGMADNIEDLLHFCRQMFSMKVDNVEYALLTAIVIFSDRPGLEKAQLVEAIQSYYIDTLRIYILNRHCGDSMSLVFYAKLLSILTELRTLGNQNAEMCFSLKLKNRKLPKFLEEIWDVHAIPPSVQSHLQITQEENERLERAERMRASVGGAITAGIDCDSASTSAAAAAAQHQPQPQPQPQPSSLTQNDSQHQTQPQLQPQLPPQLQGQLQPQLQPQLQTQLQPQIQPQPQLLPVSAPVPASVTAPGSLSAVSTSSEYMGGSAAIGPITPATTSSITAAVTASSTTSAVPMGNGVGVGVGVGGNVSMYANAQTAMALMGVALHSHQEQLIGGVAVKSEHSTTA
Excerpt: (§1) Control of target polypeptide expression by various receptor polypeptides, including the chimeric receptor polypeptides of the present invention, can be shown by simultaneously transforming plant cells with the necessary gene constructions using high velocity microprojectile bombardment, followed by biochemical assay for the presence of the target polypeptide. The necessary gene constructions comprise a first receptor expression cassette which encodes a first receptor polypeptide and a second receptor expression cassette which encodes a second receptor polypeptide. In addition, a target expression cassette which-encodes a target polypeptide is also necessary (FIG. 1).
The expression cassettes were simultaneously delivered to maize suspension cells cultured in liquid N6 medium (Chu et al. Scientia Sinica XVIII:659-668, 1975) by high velocity microprojectile bombardment using standard techniques of DNA precipation onto microprojectiles and high velocity bombardment driven by compressed helium (PDS-1000/He, BioRad, Hercules, Calif.). Transfected cells were incubated in liquid suspension in the presence of the appropriate chemical ligand for approximately 48 hours in N6 media After incubation, the transformed cells were harvested then homogenized at 0° C. Debris in the extracts was removed by centrifugation at 10,000 g at 4° C. for 5 minutes. Target polypeptide expression was detected by assaying the extract for the presence of the product encoded by the target expression cassette. One commonly used coding sequence for the target polypeptide when testing control of expression by the receptor polypeptides in the presence of a chemical ligand is firefly luciferase. The activity of firefly luciferase is determined by quantitating the chemiluminescence produced by luciferase catalyzed […] of luciferin using ATP as substrate (Promega Luciferase Kit, cat. no. E1500), using an Analytical Luminescence Model 2001 luminometer. […]

[2] = target: T2, receptor polypeptides GAL4-EcR^330-825-C1 and VP16-USP (Drosophila melanogaster, UniProt P34021); assay: Luciferase reporter transactivation, 35S/GAL4-EcR^330-825-C1 + 35S/VP16-USP with (GAL4)10-Bz1/Luc in maize cells; format: cell-based; conditions: 10 μM ligand, approximately 48 hours
T2 construct: expressed in transfected cells; host or cells: maize suspension cells (microprojectile bombardment)
Excerpt: as §1
(§2) The expression cassettes were simultaneously delivered to maize suspension cells cultured in liquid N6 medium (Chu et al. Scientia Sinica XVIII:659-668, 1975) by high velocity microprojectile bombardment using standard techniques of DNA precipation onto microprojectiles and high velocity bombardment driven by compressed helium (PDS-1000/He, BioRad, Hercules, Calif.). […] Target polypeptide expression was detected by assaying the extract for the presence of the product encoded by the target expression cassette. […]

[3] = target: T3, receptor polypeptides GAL4-EcR^330-825-C1 and USP-VP16 (UniProt P34021); assay: Luciferase reporter transactivation, 35S/GAL4-EcR^330-825-C1 + 35S/USP-VP16 with (GAL4)10-Bz1/Luc in maize cells; format: cell-based, Drosophila; conditions: 10 μM ligand, approximately 48 hours, 35S/GAL4-EcR^330-825-C1 + 35S/USP-VP16, (GAL4)10-Bz1/Luc
T3 construct: expressed in transfected cells; host or cells: maize suspension cells (microprojectile bombardment)
Excerpt: as §1, §2

[4] = target: T4, receptor polypeptides GAL4-EcR^330-878 and USP-VP16 (Drosophila melanogaster, UniProt P34021); assay: Luciferase reporter transactivation, 35S/GAL4-EcR^330-878 + 35S/USP-VP16 with (GAL4)10-Bz1/Luc in maize cells; format: cell-based
T4 construct: expressed in transfected cells; host or cells: maize suspension cells (microprojectile bombardment)
Excerpt: as §1, §2

[5] = target: T5, receptor polypeptides EcR and USP (Drosophila melanogaster, UniProt P34021); assay: Luciferase reporter transactivation, 35S/EcR + 35S/USP with (EcRE)5-Bz1/Luc co-transformed into maize cells; format: cell-based; conditions: approximately 48 hours
T5 construct: expressed in transfected cells; host or cells: maize suspension cells (microprojectile bombardment)
T5 sequence (P34021 1-878): T1 sequence (P34021 1-878)
T5 sequence (P20153 1-508 partner): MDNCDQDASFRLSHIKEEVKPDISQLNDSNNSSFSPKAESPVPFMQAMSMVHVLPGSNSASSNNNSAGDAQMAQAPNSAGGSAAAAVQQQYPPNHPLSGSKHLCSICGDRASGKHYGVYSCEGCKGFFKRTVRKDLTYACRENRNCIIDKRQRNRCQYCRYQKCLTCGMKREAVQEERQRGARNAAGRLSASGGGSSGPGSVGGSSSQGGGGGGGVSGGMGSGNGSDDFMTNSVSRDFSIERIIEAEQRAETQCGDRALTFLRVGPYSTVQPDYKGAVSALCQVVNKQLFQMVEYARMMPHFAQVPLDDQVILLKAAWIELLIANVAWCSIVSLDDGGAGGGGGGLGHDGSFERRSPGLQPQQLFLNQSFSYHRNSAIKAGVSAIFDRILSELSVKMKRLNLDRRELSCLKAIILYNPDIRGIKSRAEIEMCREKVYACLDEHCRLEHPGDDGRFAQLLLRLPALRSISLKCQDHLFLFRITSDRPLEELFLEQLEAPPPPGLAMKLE
Excerpt: as §1, §2

[6] = target: T6, receptor polypeptide USP and chimeric receptor polypeptide EcR^227-825-C1 (Drosophila melanogaster, UniProt P34021); assay: Luciferase reporter transactivation, 35S/USP + 35S/EcR^227-825-C1 with (EcRE)6-Bz1/Luc in maize cells; format: cell-based; conditions: 10 μM ligand, 48 hours, 35S/USP + 35S/EcR^227-825-C1, (EcRE)6-Bz1/Luc
T6 construct: expressed in transfected cells; host or cells: maize suspension cells (microprojectile bombardment)
Excerpt: as §1, §2

[7] = target: USP-VP16 chimeric receptor polypeptide (Drosophila; herpes simplex virus) (UniProt P20153); assay: cell-based or functional assay

## C[C@H]([C@H](O)CCC(C)(C)O)[C@H]1CC[C@@]2(O)C3=CC(=O)[C@@H]4C[C@@H](O)[C@@H](O)C[C@]4(C)[C@H]3CC[C@]12C [ecdysone]
[1]; 1 μM ligand
  Luciferase Activity (light units): 7,420 light units

## CCc1ccc(C(=O)NN(C(=O)c2cc(C)cc(C)c2)C(C)(C)C)cc1 [RH5992, tebufenozide]
[2]
  Luciferase Activity (light units): 11,069 light units
[3]
  Luciferase Activity (light units): 37,579 light units
[4]; 10 μM RH5992, GAL4-EcR^330-878 + USP-VP16, maize cells
  level of expression of luciferase above that observed in the absence of chemical ligand: 36 fold
[4]; 10 μM ligand, approximately 48 hours, maize cells, 35S/GAL4-EcR^330-878 + 35S/USP-VP16, (GAL4)10-Bz1/Luc
  Luciferase Activity (light units): 130,601 light units
[1]; 10 μM ligand
  Luciferase Activity (light units): 7,003 light units
[5]; 10 μM ligand
  Luciferase Activity (light units): 860 light units
[6]
  Luciferase Activity (light units): 24,631 light units

## GAL4-EcR^330-878 chimeric receptor polypeptide (from UniProt P04386 1-147; P34021 330-878)
[7]
  Luciferase Activity (light units), (GAL4)10-Bz1/Luc target cassette in maize cells, with 10 uM RH5992: 131000 light units
  Luciferase Activity (light units), (GAL4)10-Bz1/Luc target cassette in maize cells, without RH5992: 3590 light units
  level of expression of the target polypeptide luciferase with RH5992 over that in the absence of chemical ligand: 36 fold

## CC(C)CC[C@@H](O)[C@](C)(O)[C@H]1CC[C@@]2(O)C3=CC(=O)[C@]4(O)C[C@@H](O)[C@@H](O)C[C@]4(C)[C@H]3[C@H](O)C[C@]12C [Muristerone, muristerone]
[1]; 2 μM ligand
  Luciferase Activity (light units): 12,374 light units
[5]; 2 μM ligand
  Luciferase Activity (light units): 1351 light units

From US6939711B2, “Control of gene expression in plants by receptor mediated transactivation in the presence of a chemical ligand” (Syngenta Investment Corporation, priority 1995, dated 2005)
